Experimental data: PubChem BioAssay (NCI)
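96-well plates; 48 h exposure; 5 concentrations. Endpoints by linear interpolation between flanking doses. Not reached: highest tested concentration assigned. GI50: concentration for 50% inhibition of growth. TGI: concentration producing complete growth inhibition.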

Assays:
Experiment in all cases: inhibition of tumour cell growth, NCI panel, 48 h
SF-539 CNS = test system: SF-539 CNS
UO-31 renal = test system: UO-31 renal
TK-10 renal = test system: TK-10 renal
HT29 colon = test system: HT29 colon
K-562 leukemia = test system: K-562 leukemia
EKVX NSCLC = test system: EKVX NSCLC
CAKI-1 renal = test system: CAKI-1 renal
HCT-116 colon = test system: HCT-116 colon
OVCAR-4 ovarian = test system: OVCAR-4 ovarian
PC-3 prostate = test system: PC-3 prostate

Row | Structure (SMILES) | TGI (SF-539 CNS) [µM] | TGI (UO-31 renal) [µM] | TGI (TK-10 renal) [µM] | TGI (HT29 colon) [µM] | TGI (K-562 leukemia) [µM] | TGI (EKVX NSCLC) [µM] | TGI (CAKI-1 renal) [µM] | TGI (HCT-116 colon) [µM] | TGI (OVCAR-4 ovarian) [µM] | GI50 (SF-539 CNS) [µM] | GI50 (UO-31 renal) [µM] | GI50 (TK-10 renal) [µM] | GI50 (HT29 colon) [µM] | GI50 (K-562 leukemia) [µM] | GI50 (CAKI-1 renal) [µM] | GI50 (HCT-116 colon) [µM] | GI50 (PC-3 prostate) [µM] | TGI (PC-3 prostate) [µM] | GI50 (OVCAR-4 ovarian) [µM] | GI50 (EKVX NSCLC) [µM]
1 | O=C1OC2(c3ccccc3Oc3ccccc32)c2ccccc21 | > 100 | > 100 | > 100 | > 100 | > 100 | > 100 | > 100 | > 100 | > 100 | – | – | – | – | – | – | – | – | – | – | –
2 | S=C(N/N=C/c1ccccn1)Nc1ccccn1 | 9.02 | > 100 | > 100 | > 100 | > 100 | – | > 100 | > 100 | 62.2 | 1.81 | 1.01 | 2.93 | 3.1 | 1.84 | 1.31 | 0.371 | 1.46 | > 100 | 0.477 | –
3 | O=C(c1ccccc1)c1c(C(=O)c2ccccc2)c(-c2ccccc2)c2c(-c3ccccc3)sc(-c3ccccc3)c2c1-c1ccccc1 | > 100 | > 100 | > 100 | > 100 | > 100 | > 100 | > 100 | > 100 | > 100 | – | – | – | – | – | – | – | – | – | – | –
4 | O=C1C(=O)N(c2ccc(Cl)c(Cl)c2)C(=O)C(=O)C1c1nc2ccccc2o1 | > 100 | > 100 | > 100 | > 100 | > 100 | – | > 100 | > 100 | > 100 | – | – | – | – | – | – | – | – | – | – | –
5 | O=S1(=O)C[C@@H](O)[C@H](O)CS1 | > 100 | > 100 | > 100 | > 100 | > 100 | > 100 | > 100 | > 100 | > 100 | – | – | – | – | – | – | – | – | – | – | –
6 | CCN(CC)CCCCCCCNc1c2ccc(Cl)cc2nc2ccc(OC)cc12 | – | 2.03 | 4.08 | 0.604 | 0.835 | 4.99 | 4.65 | 0.801 | 2.9 | – | 0.545 | 0.991 | 0.203 | 0.258 | 1.55 | 0.285 | 0.843 | 2.85 | 0.913 | 1.51
7 | CS(=O)c1ccc(COP(N)(=O)N(CCCl)CCCl)cc1 (stereo unspecified) | > 100 | > 100 | > 100 | > 100 | > 100 | > 100 | > 100 | > 100 | > 100 | – | – | – | – | – | – | – | – | – | – | –
8 | COc1ccc2ccc([Se]c3ccc4ccc(OC)cc4c3)cc2c1 | > 100 | 95.8 | > 100 | > 100 | > 100 | – | > 100 | > 100 | 46.6 | – | – | – | – | – | – | – | – | – | – | –
9 | CCOC(=O)C(C)c1cc(C2(C)OCCO2)c(C)o1 (stereo unspecified) | > 100 | > 100 | > 100 | – | > 100 | > 100 | – | > 100 | > 100 | – | – | – | – | – | – | – | – | – | – | –
10 | COc1cc(/C=C/C(=O)c2ccc(Cl)cc2)ccc1OS(=O)(=O)c1ccc(C)cc1 | 24 | 21.1 | – | 4.73 | 11.3 | – | 44.4 | 3.71 | 80.1 | 11.2 | 6.95 | – | 2.15 | 2.87 | 11.1 | 1.76 | 3.6 | 15.5 | 12.8 | –
11 | COc1ccc2[nH]c(Cl)c(/C=C3/C(=O)N(C)c4ccccc43)c2c1 | – | > 100 | > 100 | > 100 | – | > 100 | > 100 | > 100 | > 100 | – | > 100 | > 100 | > 100 | – | > 100 | 42.5 | > 100 | > 100 | > 100 | > 100
12 | O=C([CH-]C(=O)c1ccccc1)c1ccccc1.O=C([CH-]C(=O)c1ccccc1)c1ccccc1.[Nd+3].[OH-].[OH3+] | 48 | 12.4 | > 100 | 26.2 | 19.1 | 43.8 | 40.9 | 19 | > 100 | 15.8 | 3.11 | 26.4 | 8.8 | 3.31 | 13.6 | 5.26 | – | – | 16.4 | 9.99
13 | CC(C(=O)Oc1ccc2ccccc2c1-c1c(O)ccc2ccccc12)c1ccccc1 (stereo unspecified) | 33.9 | 6.37 | 32.8 | 28.8 | 86.7 | 37.3 | 24 | 25.6 | 23.5 | – | – | – | – | – | – | – | – | – | – | –
14 | CCOC(=O)C1C(=O)c2ccccc2CN1Cc1ccccc1 (stereo unspecified) | > 100 | > 100 | > 100 | > 100 | > 100 | > 100 | > 100 | > 100 | > 100 | – | – | – | – | – | – | – | – | – | – | –
15 | c1ccc(N=C2c3ccccc3C3=NCCCN32)cc1 | > 100 | > 100 | > 100 | > 100 | > 100 | > 100 | > 100 | > 100 | > 100 | – | – | – | – | – | – | – | – | – | – | –
16 | CC[N+](CC)(CC)CCCn1c2c(c3ccccc3c1=O)C(=O)c1ccccc1-2 | – | – | > 100 | > 100 | > 100 | – | 30.9 | 9.27 | > 100 | – | – | 1.01 | 6.3 | 18.7 | 3.74 | 1.95 | 9.13 | 69.1 | 55.3 | –
17 | COC(=O)c1nc(NC#N)[nH]c(=O)c1C | > 93 | > 84.2 | > 100 | > 100 | > 100 | > 100 | > 100 | > 100 | > 100 | – | – | – | – | – | – | – | – | – | – | –
18 | O=C(CCCn1ccnc1[N+](=O)[O-])NCCn1ccnc1 | > 100 | > 100 | > 100 | > 100 | > 100 | – | > 100 | > 100 | – | – | – | – | – | – | – | – | – | > 100 | – | –
19 | CC1NOC(=O)C1N=Nc1ccccc1Cl (stereo unspecified) | > 100 | 34.5 | > 100 | – | > 100 | > 100 | > 100 | > 100 | > 100 | – | – | – | – | – | – | – | – | – | – | –
